Source: US12630534B2 (TAKEDA PHARMACEUTICAL COMPANY LIMITED, priority 2020, dated 2026)

Biological target: T1, human GPR139 (Homo sapiens, UniProt Q6DWJ6)
T1 construct: expressed in transfected cells; host or cells: CHO-TREx (Life Technologies) cells, expression induced with doxycycline
T1 sequence (Q6DWJ6 1-353): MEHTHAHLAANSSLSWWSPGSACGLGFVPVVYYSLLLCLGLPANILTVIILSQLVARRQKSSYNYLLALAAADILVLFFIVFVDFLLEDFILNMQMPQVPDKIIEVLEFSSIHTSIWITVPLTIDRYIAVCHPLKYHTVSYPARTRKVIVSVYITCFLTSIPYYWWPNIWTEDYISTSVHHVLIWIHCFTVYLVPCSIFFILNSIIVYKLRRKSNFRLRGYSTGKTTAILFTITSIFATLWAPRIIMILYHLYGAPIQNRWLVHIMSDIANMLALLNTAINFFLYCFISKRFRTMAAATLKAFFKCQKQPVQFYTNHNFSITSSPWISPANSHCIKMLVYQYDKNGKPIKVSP
Assay: Inhibition rate of the amount of IP1 in GPR139-expressed CHO cells (inverse agonist assay, Test Example 2)
Format: cell-based
Conditions: CHO, relative value, inhibition rate of Example Compound 2 in Test Example 1 defined as 100%
Experimental: The measurement of IP1 was made using an IP-ONE HTFR assay kit (cis-bio) and CHO-TREx (Life Technologies) cells stably transfected with GPR139. The CHO-TREx cells expressed human GPR139 with a tetracycline-inducing element. The cells were cultured in a medium containing F12K and 10% tetracycline-free FBS, and the expression of human GPR139 was induced over the course of 17 hours under conditions of 37° C. and 5% CO2 in the presence of 2 μg/mL of doxycycline (Clontech, 631311) in the growth medium on the day before assay. On the day of the test, after the cells were washed with 10 mL of PBS, the cells were detached with TrypLE Express (Life Technologies) and centrifuged at 1,000 rpm to form pellets, and a cell suspension was then prepared using a stimulation buffer (cis-bio, included in the IP-ONE HTRF assay kit).
The compound was diluted with the stimulation buffer, and 4 μL was added to a 384-well white assay plate (Greiner). The cell suspension was added so that there were 2000 cells per well, and the assay plate was left to stand for 40 minutes at 37° C. Equal amounts of IP1-d2 and Ab-Crp solutions (both available from cis-bio, included in the IP-ONE HTRF assay kit) prepared with a lysis buffer (cis-bio, included in the IP-ONE HTRF assay kit) were mixed, and 4 μL was added to the assay plate and left to stand for one hour at room temperature. After the fluorescence strengths of two wavelengths were measured by the HTRF settings of Envision (PerkinElmer), the value of Ratio={(Signal 665 nm)/(Signal 615 nm)}×10000 was calculated.
Measurement of the Inhibition Rate of the Amount of IP1 in GPR139-Expressed CHO Cells (Inverse Agonist Assay)
The activities of the compounds of Examples 1 and 3 to 167 were expressed as relative values in Table 2 by measuring the inhibition rate of the amount of IP1 with the same method as in Test Example 1 and defining the inhibition rate of the amount of IP1 of Example Compound 2 in Test Example 1 as […].

SMILES	inhibition at 30 µM [%]
CCn1cc(Cn2ccn(-c3cc(-c4ccc(F)cc4)cc(C(F)(F)F)c3)c2=O)cn1 [Example 1, 1-[(1-Ethyl-1H-pyrazole-4-yl)methyl]-3-[4′-fluoro-5-(trifluoromethyl)[1,1′-biphenyl]-3-yl]-1,3-dihydro-2H-imidazole-2-one]	99
CCn1cc(Cn2cc(C)n(-c3cc(-c4ccc(F)cc4)cc(C(F)(F)F)c3)c2=O)cn1 [Example 3, 1-[(1-ethyl-1H-pyrazol-4-yl)methyl]-3-[4′-fluoro-5-(trifluoromethyl)[1,1′-biphenyl]-3-yl]-4-methyl-1,3-dihydro-2H-imidazol-2-one]	101
CCn1cc(Cn2cc(C)n(-c3cc(Oc4ccc(F)cc4)cc(C(F)(F)F)c3)c2=O)cn1 [Example 5, 1-[(1-ethyl-1H-pyrazol-4-yl)methyl]-3-[3-(4-fluorophenoxy)-5-(trifluoromethyl)phenyl]-4-methyl-1,3-dihydro-2H-imidazol-2-one]	99
CCn1cc(Cn2cc(C)n(-c3cc(OC4CCOCC4)cc(C(F)(F)F)c3)c2=O)cn1 [Example 6, 1-[(1-ethyl-1H-pyrazol-4-yl)methyl]-4-methyl-3-{3-[(oxan-4-yl)oxy]-5-(trifluoromethyl)phenyl}-1,3-dihydro-2H-imidazol-2-one]	102
CCn1cc(Cn2cc(C)n(-c3cc(OCC4CC(F)(F)C4)cc(C(F)(F)F)c3)c2=O)cn1 [Example 7, 3-{3-[(3,3-difluorocyclobutyl)methoxy]-5-(trifluoromethyl)phenyl}-1-[(1-ethyl-1H-pyrazol-4-yl)methyl]-4-methyl-1,3-dihydro-2H-imidazol-2-one]	102
CCn1cc(Cn2c(C)c(C)n(-c3cc(N4CCO[C@H](C)C4)cc(C(F)(F)F)c3)c2=O)cn1 [Example 16, 1-[(1-ethyl-1H-pyrazol-4-yl)methyl]-4,5-dimethyl-3-(3-[(2R)-2-methylmorpholin-4-yl]-5-(trifluoromethyl)phenyl}-1,3-dihydro-2H-imidazol-2-one]	100
CCn1cc(Cn2cc(C)n(-c3cc(OCC4CC4)cc(C(F)(F)F)c3)c2=O)cn1 [Example 17, 3-[3-(cyclopropylmethoxy)-5-(trifluoromethyl)phenyl]-1-[(1-ethyl-1H-pyrazol-4-yl)methyl]-4-methyl-1,3-dihydro-2H-imidazol-2-one]	99
CCn1cc(Cn2cc(C)n(-c3cc(-n4cnc(C)c4)cc(C(F)(F)F)c3)c2=O)cn1 [Example 21, 1-[(1-ethyl-1H-pyrazol-4-yl)methyl]-4-methyl-3-[3-(4-methyl-1H-imidazol-1-yl)-5-(trifluoromethyl)phenyl]-1,3-dihydro-2H-imidazol-2-one]	99
CCn1cc(Cn2cc(C)n(-c3cc(OCC4CC4(F)F)cc(C(F)(F)F)c3)c2=O)cn1 (centres unmarked) [Example 22, 3-{3-[(2,2-difluorocyclopropyl)methoxy]-5-(trifluoromethyl)phenyl}-1-[(1-ethyl-1H-pyrazol-4-yl)methyl]-4-methyl-1,3-dihydro-2H-imidazol-2-one]	100
CCn1cc(Cn2cc(C)n(-c3cc(N4C[C@@H](C)O[C@@H](C)C4)cc(C(F)(F)F)c3)c2=O)cn1 [Example 23, 3-{3-[(2R,6S)-2,6-dimethylmorpholin-4-yl]-5-(trifluoromethyl)phenyl}-1-[(1-ethyl-1H-pyrazol-4-yl)methyl]-4-methyl-1,3-dihydro-2H-imidazol-2-one]	100

Next, values leading:

inhibition at 30 µM [%]	SMILES
102	CCn1cc(Cn2cc(C)n(-c3cc(N4CCO[C@H](C)C4)cc(C(F)(F)F)c3F)c2=O)cn1 [Example 4, 1-[(1-ethyl-1H-pyrazol-4-yl)methyl]-3-{2-fluoro-5-[(2R)-2-methylmorpholin-4-yl]-3-(trifluoromethyl)phenyl}-4-methyl-1,3-dihydro-2H-imidazol-2-one]
101	CCn1cc(Cn2ccn(-c3cc(N4CCO[C@H](C)C4)cc(C(F)(F)F)c3C)c2=O)cn1 [Example 8, 1-[(1-ethyl-1H-pyrazol-4-yl)methyl]-3-{2-methyl-5-[(2R)-2-methylmorpholin-4-yl]-3-(trifluoromethyl)phenyl}-1,3-dihydro-2H-imidazol-2-one]
102	CCn1cc(C(C)n2ccn(-c3cc(N4CCO[C@H](C)C4)cc(C(F)(F)F)c3F)c2=O)cn1 (stereo partly drawn) [Example 9, 1-[1-(1-ethyl-1H-pyrazol-4-yl)ethyl]-3-{2-fluoro-5-[(2R)-2-methylmorpholin-4-yl]-3-(trifluoromethyl)phenyl}-1,3-dihydro-2H-imidazol-2-one]
100	CCn1cc(Cn2ccn(-c3cc(N(C)C4CCOCC4)cc(C(F)(F)F)c3F)c2=O)cn1 [Example 10, 1-[(1-ethyl-1H-pyrazol-4-yl)methyl]-3-{2-fluoro-5-[methyl(oxan-4-yl)amino]-3-(trifluoromethyl)phenyl}-1,3-dihydro-2H-imidazol-2-one]
98	CCn1cc(Cn2ccn(-c3cc(N4CCO[C@@H](C)C4)cc(C(F)(F)F)c3F)c2=O)cn1 [Example 11, 1-[(1-ethyl-1H-pyrazol-4-yl)methyl]-3-{2-fluoro-5-[(2S)-2-methylmorpholin-4-yl]-3-(trifluoromethyl)phenyl}-1,3-dihydro-2H-imidazol-2-one]
98	CCn1cc(Cn2ccn(-c3cc(N4CCOC(C)(C)C4)cc(C(F)(F)F)c3F)c2=O)cn1 [Example 12, 1-[5-(2,2-dimethylmorpholin-4-yl)-2-fluoro-3-(trifluoromethyl)phenyl]-3-[(1-ethyl-1H-pyrazol-4-yl)methyl]-1,3-dihydro-2H-imidazol-2-one]
101	CCn1ncc(Cn2ccn(-c3cc(N4CCO[C@H](C)C4)cc(C(F)(F)F)c3F)c2=O)c1C [Example 13, 1-[(1-ethyl-5-methyl-1H-pyrazol-4-yl)methyl]-3-{2-fluoro-5-[(2R)-2-methylmorpholin-4-yl]-3-(trifluoromethyl)phenyl}-1,3-dihydro-2H-imidazol-2-one]
99	CCn1cc(Cn2cc(C)n(-c3cc(N4CCO[C@H](C)C4)cc(C(F)(F)F)c3)c2=O)cn1 [Example 14, 1-[(1-ethyl-1H-pyrazol-4-yl)methyl]-4-methyl-3-{3-[(2R)-2-methylmorpholin-4-yl]-5-(trifluoromethyl)phenyl}-1,3-dihydro-2H-imidazol-2-one]
101	CCn1cc(Cn2ccn(-c3cc(N4CCO[C@H](C)C4)cc(C(F)(F)F)c3Cl)c2=O)cn1 [Example 15, 1-{2-chloro-5-[(2R)-2-methylmorpholin-4-yl]-3-(trifluoromethyl)phenyl}-3-[(1-ethyl-1H-pyrazol-4-yl)methyl]-1,3-dihydro-2H-imidazol-2-one]
101	CCn1cc(Cn2cc(C)n(-c3cc(C(F)(F)F)cc(N4CCO[C@H](C)C4)n3)c2=O)cn1 [Example 18, 1-[(1-Ethyl-1H-pyrazole-4-yl)methyl]-4-methyl-3-{6-[(2R)-2-methylmorpholine-4-yl]-4-(trifluoromethyl)pyridine-2-yl}-1,3-dihydro-2H-imidazole-2-one]
100	CCn1cc(Cn2cc(C)n(-c3cc(N4CCC(F)(F)CC4)cc(C(F)(F)F)c3)c2=O)cn1 [Example 19, 3-[3-(4,4-difluoropiperidin-1-yl)-5-(trifluoromethyl)phenyl]-1-[(1-ethyl-1H-pyrazol-4-yl)methyl]-4-methyl-1,3-dihydro-2H-imidazol-2-one]
99	CCn1cc(Cn2cc(C)n(-c3cc(N4CCOC(C(F)F)C4)cc(C(F)(F)F)c3)c2=O)cn1 (centres unmarked) [Example 20, 3-{3-[2-(difluoromethyl)morpholin-4-yl]-5-(trifluoromethyl)phenyl}-1-[(1-ethyl-1H-pyrazol-4-yl)methyl]-4-methyl-1,3-dihydro-2H-imidazol-2-one]
100	CCn1cc(Cn2cc(C)n(-c3cc(N4CCC(F)(F)C4)cc(C(F)(F)F)c3)c2=O)cn1 [Example 24, 3-[3-(3,3-difluoropyrrolidin-1-yl)-5-(trifluoromethyl)phenyl]-1-[(1-ethyl-1H-pyrazol-4-yl)methyl]-4-methyl-1,3-dihydro-2H-imidazol-2-one]
